Assay results taken from the supplement of paper PMC10307832.

Legend:
Assay in all cases: relative viability (nuclei count vs DMSO), 5 days (fraction); higher = more cells survive
NCI-H2126 = system: NCI-H2126
In short: (§1)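 Each reported value is a median over duplicate plates. It expresses relative viability: treated-well nuclei count divided by vehicle-well nuclei count. Lung cancer cell lines in 1536-well plates were dosed by pin tool a day after seeding, alone with one drug or with a fixed anchor-drug dose plus five library-drug doses (not always all listed) in √10 steps, and nuclei were counted after 5 days.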

NCI-H441 = system: NCI-H441
In short: as §1

NCI-H2347 = system: NCI-H2347
In short: as §1

NCI-H596 = system: NCI-H596
In short: as §1

NCI-H838 = system: NCI-H838
In short: as §1

NCI-H1993 = system: NCI-H1993
In short: as §1

NCI-H3122 = system: NCI-H3122
In short: as §1

NCI-H650 = system: NCI-H650
In short: as §1

EMC-BAC-2 = system: EMC-BAC-2
In short: as §1

201T = system: 201T
In short: as §1

BEN = system: BEN
In short: as §1

NCI-H647 = system: NCI-H647
In short: as §1

LOU-NH91 = system: LOU-NH91
In short: as §1

HCC-44 = system: HCC-44
In short: as §1

NCI-H2087 = system: NCI-H2087
In short: as §1

NCI-H727 = system: NCI-H727
In short: as §1

HARA = system: HARA
In short: as §1

NCI-H23 = system: NCI-H23
In short: as §1

LCLC-103H = system: LCLC-103H
In short: as §1

NCI-H522 = system: NCI-H522
In short: as §1

NCI-H2023 = system: NCI-H2023
In short: as §1

NCI-H1395 = system: NCI-H1395
In short: as §1

## CCN(CC)CCCCNc1ncc2cc(-c3cc(OC)cc(OC)c3)c(NC(=O)NC(C)(C)C)nc2n1 + O=C(c1cc(Cc2n[nH]c(=O)c3ccccc23)ccc1F)N1CCN(C(=O)C2CC2)CC1 [Olaparib] (partner 8 µM)
NCI-H2126; first compound 0.01 µM
  relative viability: 1.03
NCI-H2126; first compound 0.03162 µM
  relative viability: 0.948
NCI-H2126; first compound 0.1 µM
  relative viability: 0.976
NCI-H2126; first compound 0.3162 µM
  relative viability: 0.984
NCI-H2126; first compound 1 µM
  relative viability: 0.899
NCI-H441; first compound 0.01 µM
  relative viability: 0.601
NCI-H441; first compound 0.03162 µM
  relative viability: 0.556
NCI-H441; first compound 0.1 µM
  relative viability: 0.531
NCI-H441; first compound 0.3162 µM
  relative viability: 0.715
NCI-H441; first compound 1 µM
  relative viability: 0.688
NCI-H2347; first compound 0.01 µM
  relative viability: 0.585
NCI-H2347; first compound 0.03162 µM
  relative viability: 0.579
NCI-H2347; first compound 0.1 µM
  relative viability: 0.617
NCI-H2347; first compound 0.3162 µM
  relative viability: 0.655
NCI-H2347; first compound 1 µM
  relative viability: 0.602
NCI-H596; first compound 0.01 µM
  relative viability: 0.649
NCI-H596; first compound 0.03162 µM
  relative viability: 0.727
NCI-H596; first compound 0.1 µM
  relative viability: 0.635
NCI-H596; first compound 0.3162 µM
  relative viability: 0.723
NCI-H596; first compound 1 µM
  relative viability: 0.563
NCI-H838; first compound 0.01 µM
  relative viability: 0.824
NCI-H838; first compound 0.03162 µM
  relative viability: 0.835
NCI-H838; first compound 0.1 µM
  relative viability: 0.743
NCI-H838; first compound 0.3162 µM
  relative viability: 0.745
NCI-H838; first compound 1 µM
  relative viability: 0.603
NCI-H1993; first compound 0.01 µM
  relative viability: 1.01
NCI-H1993; first compound 0.03162 µM
  relative viability: 1.01
NCI-H1993; first compound 0.1 µM
  relative viability: 1.14
NCI-H1993; first compound 0.3162 µM
  relative viability: 1.26
NCI-H1993; first compound 1 µM
  relative viability: 0.99
NCI-H3122; first compound 0.01 µM
  relative viability: 0.642
NCI-H3122; first compound 0.03162 µM
  relative viability: 0.69
NCI-H3122; first compound 0.1 µM
  relative viability: 0.68
NCI-H3122; first compound 0.3162 µM
  relative viability: 0.647
NCI-H3122; first compound 1 µM
  relative viability: 0.71
NCI-H650; first compound 0.01 µM
  relative viability: 0.369
NCI-H650; first compound 0.03162 µM
  relative viability: 0.408
NCI-H650; first compound 0.1 µM
  relative viability: 0.41
NCI-H650; first compound 0.3162 µM
  relative viability: 0.355
NCI-H650; first compound 1 µM
  relative viability: 0.391
EMC-BAC-2; first compound 0.03162 µM
  relative viability: 0.485
EMC-BAC-2; first compound 0.1 µM
  relative viability: 0.56
EMC-BAC-2; first compound 0.3162 µM
  relative viability: 0.507
EMC-BAC-2; first compound 1 µM
  relative viability: 0.525
201T; first compound 0.01 µM
  relative viability: 0.913
201T; first compound 0.03162 µM
  relative viability: 0.807
201T; first compound 0.1 µM
  relative viability: 0.924
201T; first compound 0.3162 µM
  relative viability: 0.853
201T; first compound 1 µM
  relative viability: 0.719
BEN; first compound 0.01 µM
  relative viability: 1.18
BEN; first compound 0.03162 µM
  relative viability: 0.97
BEN; first compound 0.1 µM
  relative viability: 1.01
BEN; first compound 0.3162 µM
  relative viability: 1.17
BEN; first compound 1 µM
  relative viability: 1.01
NCI-H647; first compound 0.01 µM
  relative viability: 0.476
NCI-H647; first compound 0.03162 µM
  relative viability: 0.732
NCI-H647; first compound 0.1 µM
  relative viability: 0.674
NCI-H647; first compound 0.3162 µM
  relative viability: 0.563
NCI-H647; first compound 1 µM
  relative viability: 0.393
LOU-NH91; first compound 0.01 µM
  relative viability: 0.895
LOU-NH91; first compound 0.03162 µM
  relative viability: 0.9
LOU-NH91; first compound 0.1 µM
  relative viability: 0.954
LOU-NH91; first compound 0.3162 µM
  relative viability: 0.952
LOU-NH91; first compound 1 µM
  relative viability: 0.884
HCC-44; first compound 0.01 µM
  relative viability: 1.06
HCC-44; first compound 0.03162 µM
  relative viability: 1.07
HCC-44; first compound 0.1 µM
  relative viability: 1.03
HCC-44; first compound 0.3162 µM
  relative viability: 1.01
HCC-44; first compound 1 µM
  relative viability: 0.942
NCI-H2087; first compound 0.01 µM
  relative viability: 0.581
NCI-H2087; first compound 0.03162 µM
  relative viability: 0.599
NCI-H2087; first compound 0.1 µM
  relative viability: 0.71
NCI-H2087; first compound 0.3162 µM
  relative viability: 0.735
NCI-H2087; first compound 1 µM
  relative viability: 0.476
NCI-H727; first compound 0.01 µM
  relative viability: 0.674
NCI-H727; first compound 0.03162 µM
  relative viability: 0.504
NCI-H727; first compound 0.1 µM
  relative viability: 0.671
NCI-H727; first compound 0.3162 µM
  relative viability: 0.585
NCI-H727; first compound 1 µM
  relative viability: 0.741
HARA; first compound 0.01 µM
  relative viability: 0.697
HARA; first compound 0.03162 µM
  relative viability: 0.62
HARA; first compound 0.1 µM
  relative viability: 0.561
HARA; first compound 0.3162 µM
  relative viability: 0.811
HARA; first compound 1 µM
  relative viability: 0.443
NCI-H23; first compound 0.01 µM
  relative viability: 0.306
NCI-H23; first compound 0.03162 µM
  relative viability: 0.226
NCI-H23; first compound 0.1 µM
  relative viability: 0.375
NCI-H23; first compound 0.3162 µM
  relative viability: 0.362
NCI-H23; first compound 1 µM
  relative viability: 0.332
LCLC-103H; first compound 0.01 µM
  relative viability: 0.813
LCLC-103H; first compound 0.03162 µM
  relative viability: 0.788
LCLC-103H; first compound 0.1 µM
  relative viability: 0.888
LCLC-103H; first compound 0.3162 µM
  relative viability: 0.833
LCLC-103H; first compound 1 µM
  relative viability: 0.567
NCI-H522; first compound 0.01 µM
  relative viability: 0.687
NCI-H522; first compound 0.03162 µM
  relative viability: 0.544
NCI-H522; first compound 0.1 µM
  relative viability: 0.708
NCI-H522; first compound 0.3162 µM
  relative viability: 0.85
NCI-H522; first compound 1 µM
  relative viability: 0.663
NCI-H2023; first compound 0.01 µM
  relative viability: 0.521
NCI-H2023; first compound 0.03162 µM
  relative viability: 0.512
NCI-H2023; first compound 0.1 µM
  relative viability: 0.668
NCI-H2023; first compound 0.3162 µM
  relative viability: 0.55
NCI-H2023; first compound 1 µM
  relative viability: 0.449
NCI-H1395; first compound 0.01 µM
  relative viability: 0.46
NCI-H1395; first compound 0.03162 µM
  relative viability: 0.467
NCI-H1395; first compound 0.1 µM
  relative viability: 0.478
NCI-H1395; first compound 0.3162 µM
  relative viability: 0.497
NCI-H1395; first compound 1 µM
  relative viability: 0.431
